# In ChEMBL document CHEMBL1127366, “Structure--activity relationships of sialyl Lewis x-containing oligosaccharides. 1. Effect of modifications of the fucose moiety” (J Med Chem, 1994):
# Target: T1, E-selectin (Homo sapiens, UniProt P16581)
# T1 sequence (P16581 whole entry): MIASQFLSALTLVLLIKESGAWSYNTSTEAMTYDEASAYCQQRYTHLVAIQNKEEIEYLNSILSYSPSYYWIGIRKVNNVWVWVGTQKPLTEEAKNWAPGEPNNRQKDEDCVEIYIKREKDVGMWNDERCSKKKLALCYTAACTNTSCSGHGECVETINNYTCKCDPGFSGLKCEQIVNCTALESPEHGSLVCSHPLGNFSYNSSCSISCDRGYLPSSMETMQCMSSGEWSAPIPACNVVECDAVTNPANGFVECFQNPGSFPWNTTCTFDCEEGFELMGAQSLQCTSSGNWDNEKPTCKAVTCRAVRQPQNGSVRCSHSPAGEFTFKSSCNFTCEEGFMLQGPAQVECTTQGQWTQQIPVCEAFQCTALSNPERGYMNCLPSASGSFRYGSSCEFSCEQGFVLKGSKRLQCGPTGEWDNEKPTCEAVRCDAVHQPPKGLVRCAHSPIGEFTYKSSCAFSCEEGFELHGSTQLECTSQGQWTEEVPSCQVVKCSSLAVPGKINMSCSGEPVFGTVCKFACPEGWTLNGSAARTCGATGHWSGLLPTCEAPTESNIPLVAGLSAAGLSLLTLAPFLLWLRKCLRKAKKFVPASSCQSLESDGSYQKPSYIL
# Experiment: Tested for inhibition of cell adhesion of HL-60 containing SLeX to purified recombinant human E-selectin
compound,measurement,value
CCO[C@@H]1O[C@@H](CO)[C@H](O)[C@H](O[C@@H]2O[C@@H](CO)[C@@H](O[C@@H]3O[C@@H](CO)[C@H](O)[C@H](O[C@]4(C(=O)ON)C[C@@H](O)[C@@H](NC(C)=O)C([C@H](O)[C@H](O)CO)O4)[C@@H]3O)[C@H](O[C@@H]3OC[C@@H](O)[C@H](O)[C@@H]3O)[C@@H]2NC(C)=O)[C@@H]1O (stereo partly specified),IC50,5 mM
